Test results: patent EP4748844A1, “AZETIDINE COMPOUND AND MEDICAL USE THEREOF” (SHANGHAI INSTITUTE OF MATERIA MEDICA, CHINESE ACADEMY OF …, priority 2023, dated 2025)

Experiments:
[1] = tested on: ISG gene expression induced by MSA-2 in human THP1-Dual cells; assay: Inhibition of MSA-2-induced ISG gene expression in human THP1-Dual cells (QUANTI-Luc); type: cell-based; conditions: STING agonist MSA-2 10 µM, incubated for 24 hours
Description: 10 µL of compound diluted with PBS/physiological saline was added to each well of a 96 well cell culture plate. The STING agonist was MSA-2, which was added to the counted cell suspension at a final concentration of 10 µM. For the control group without compounds, 10 µL of PBS/physiological saline containing 2% DMSO was added. 3 replicate wells were set in each group. THP1-Dual cells were counted and adjusted to a cell concentration of 4×10^5/mL, and 190 µL of cells containing STING agonist were added to each well for incubation. Therefore, the final volume of each test well was 200 µL, the content of DMSO was 0.1%, and the final concentration of the compound tested was 10/3.3/1.1/0.4/0.13/0.04/0.013/0.004 µM, incubated for 24 hours. In addition, 190 µL of cells without STING agonist and 10 µL of physiological saline containing 2% DMSO were added to the blank group. 3 replicate wells were set in each group.
After 24 hours, 20 µL of culture medium for THP1-Dual cells was taken from each well and transferred to a new 96 well plate with photopermeable bottom. 50 µL of the luciferase detection reagent QUANTI-Luc™ was added, and the […] was immediately measured (avoid light). Result analysis:Inhibition rate (%) = (Con(Lum)−Treated(Lum))/Con(Lum) × 100% [formula]
The IC50 calculation of inhibitors was implemented using the Graphpad Prism 8 software's calculation method log (inhibitor) vs. response - Variable slope (four parameters), with a constrain interval of 0-100.

[2] = tested on: STING agonist (MSA-2) stimulation; assay: In vivo anti-inflammatory effect of injection administration on STING agonist (MSA-2) stimulation; set-up: species or system C57BL6 female mice; conditions: I-77 10mpk, IP
Description: (§1) 6-8 week C57BL6 female mice, purchased from Shanghai Jihui Experimental Animal Breeding Co., Ltd. Compound preparation method: 2 mg of I-77 powder was taken, 12 µL of PEG400 was added thereto and ultrasonically dissolved, and then 8 µL of Tween 80 was added and ultrasonically mixed to prepare a 100 mg/mL stock solution.
(§2) Experimental grouping: The control group was administered vehicle solvent; The model group was administered MSA-2 (10mpk, dissolved in 40% PEG400); The treatment group (I-77) was administered MSA-2 and I-77 (10mpk, IP). A final concentration of 10 mg/mL of I-77 solution was prepared by dilution with double distilled water, and 200 µL of the solution was taken and injected intraperitoneally into the mice in treatment group; The control group and MSA-2 group were injected intraperitoneally with 200 µL of vehicle solvent diluted 10 times. […] After high-speed centrifugation of blood samples, the plasma was taken and diluted by 2 times, and the levels of CXCL10 and IL6 in the plasma were detected using the Lianke ELISA kit. RNA was extracted from heart and kidney samples, and reversed to cDNA, and inflammation related cytokines (ISG15, ISG56, IL6, and IP10) in tissues were detected using qPCR technology. […]

[3] = tested on: STING agonist (MSA-2) stimulation; assay: In vivo anti-inflammatory effect of oral administration on STING agonist (MSA-2) stimulation; set-up: species or system C57BL6 female mice; conditions: I-77 20mpk
Description: as §1
as §2, with “I-77 (20mpk, PO).” for “I-77 (10mpk, IP).”, “of […]” for “of 10”, “and administered intragastrically” for “and injected intraperitoneally”, “were administered intragastrically” for “were injected intraperitoneally”

[4] = tested on: STING-V154M mutant autoimmune mouse disease model; assay: Inflammatory inhibitory effect of oral administration in STING-V154M mutant autoimmune mouse disease model; type: in vivo; conditions: I-77 20mpk
Description: The model mice were purchased from GEMPHARMATECH CO., LTD., and the wild-type C57/BL6 mice were also purchased from GEMPHARMATECH CO., LTD... Compound preparation method: 2 mg of I-77 powder was taken, 12 µL of PEG400 was added thereto and ultrasonically dissolved, and then 8 µL of Tween 80 was added and ultrasonically mixed to prepare a 100 mg/mL stock solution.
Experimental grouping: Wild type mice control group (Control) was administered vehicle solvent; The model mice group (Model) was administered solvent; The treatment group (I-77) was administered I-77 (20mpk, PO) to the model mice. The mice in the I-77 treatment group were intragastrically administered 200 µL of I-77 solution at a final concentration of […] which was prepared by dilution with double-distilled water; The same dose of solvent was administered to the remaining groups until the mortality rate of the model group exceeded 50%. The kidneys and heart were collected from the experimental endpoint samples. RNA extraction was performed on heart and kidneys samples, and the RNA was reversed to cDNA. Changes in gene expression of inflammation related cytokines (ISG15, CCL5, IP10, ISG56) in the tissues were detected using qPCR technology. Statistical method: One way ANOVA, *P<0.05, **P<0.01, ***P<0.001, ***P<0.0001.

CC1(C)C(=O)N(Cc2ccsc2)c2cc(C(=O)Nc3c[nH]c4ccccc34)ccc21 [Example I-77, N-(1H-indol-3-yl)-3,3-dimethyl-2-oxo-1-(thien-3-ylmethyl)indolin-6-carboxamide]
IC50 [1]: 0.63 nM
IL6 and IP10 levels in plasma stimulated by MSA-2 ([2]; 3 hours before MSA-2 (10mpk), plasma ELISA 3 hours after MSA-2, Figure 1): significantly inhibit the increase
inflammatory response of the heart and kidneys induced by MSA-2 stimulation ([2]; qPCR of ISG15, ISG56, IL6, IP10 in tissues, Figures 2, 3): suppress the inflammatory response
levels of IL6 and IP10 in plasma induced by MSA-2 injection ([3]; 1 hour before MSA-2 (10mpk), plasma ELISA after 4 hours, Figure 4): significantly reduced
inflammatory response of the heart and kidneys induced by MSA-2 stimulation ([3]; qPCR of ISG15, ISG56, IL6, IP10 in tissues, Figures 5, 6): inhibited the inflammatory response
cardiac and renal inflammatory responses of STING V154M mutant model mice ([4]; qPCR of ISG15, CCL5, IP10, ISG56 in heart and kidneys, Figures 8, 9): inhibit the cardiac and renal inflammatory responses
survival of STING V154M mutant model mice ([4]; until mortality of the model group exceeded 50%, Figure 7): significantly prolong the survival
